Eleven compounds from US10981932B2, “Macrocyclic indole derivatives” (Bayer Aktiengesellschaft, priority 2016, dated 2021) can be followed below.

Molecules are shown by their SMILES. Counter-ions that a name gives are not always drawn. Like-named read-outs stand apart in the source and are kept apart here.

One may read the EC50 as the midpoint of the concentration-response curve. Low readings indicate a more potent agent, high ones a less potent agent.

One data set concerns A2780. Put plainly: Anti-proliferative effect (CellTiter-Glo, 72 h), A2780. Format: cell-based. Conditions: A2780 cells, median, read-out: IC50 antiproliferation assay A2780 [M] (median). In outline:
(§1)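 Plate cells alongside a separate day 0 reference plate. Read the reference plate at once with CellTiter-Glo. Incubate treated cells 72 h at 37 °C, then read them the same way by luminescence.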

Data set [1] deals with SUDHL10. Put plainly: Induction of caspase-3/7 activity (Caspase-Glo 3/7), SUDHL10. Format: cell-based. Conditions: caspase-3/7 induction, SUDHL10 cells, 3 h treatment, median. In outline:
(§2)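 A 3 h, 37 °C compound incubation precedes the Caspase-Glo 3/7 read. After subtracting medium-only signal, EC50s are fitted against the reference compound's maximal caspase induction.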

Data set [2] concerns SUDHL5. Nature of the data set: Anti-proliferative effect (CellTiter-Glo, 72 h), SUDHL5. The format is cell-based. Conditions: SUDHL5 cells, antiproliferation, 72 h incubation, median, read-out: Antiproli SUDHL5 [M] (median). In outline:
as §1

The next data set concerns the target MCL-1 (Homo sapiens, UniProt Q07820). Put plainly: Protein-protein interaction assay MCL-1/Noxa BH3 peptide (MCL-1 assay), TR-FRET. The format is binding. Particulars: MBP-MCL-1 / Noxa BH3-derived peptide, median. In outline: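 Steady-state competition, MCL-1/Noxa BH3, TR-FRET readout; 1 nM MBP-MCL-1, 11-point dose series 0.1 nM–20 μM; overnight 4 °C equilibration; 4-parameter IC50.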
(In general: Time-resolved FRET reads energy transfer from a long-lived donor to a nearby acceptor.)

Data set [3] has as its system SUDHL10. Put plainly: Induction of cytotoxicity (CellTiter-Glo, 5 h), SUDHL10. In general terms: In ATP-based viability assays light output follows the ATP content of the culture.
The subject of data set [4] is SUDHL5. Put plainly: Induction of caspase-3/7 activity (Caspase-Glo 3/7), SUDHL5. Format: cell-based. Conditions: caspase-3/7 induction, SUDHL5 cells, 3 h treatment, median. In outline: as §2
For data set [5], the system named is SUDHL5. Put plainly: Induction of cytotoxicity (CellTiter-Glo, 5 h), SUDHL5.
[6] abbreviates: Homo sapiens, SU-DHL10, 5 h, read-out: Cytotox SUDHL10 [M] (median), SUDHL10 cells, cytotoxicity induction, CellTiter-Glo, 5 h incubation, median.
The mark [7] stands for this setting: read-out: Cytotox SUDHL5 [M] (median), SUDHL5 cells, cytotoxicity induction, CellTiter-Glo, 5 h incubation, median.
The mark [8] stands for this setting: read-out: Cytotox SUDHL10 [M] (median), SUDHL10 cells, cytotoxicity induction, CellTiter-Glo, 5 h incubation, median.
Where [9] appears, read: Homo sapiens, SU-DHL-5, 5 h, read-out: Cytotox SUDHL5 [M] (median), SUDHL5 cells, cytotoxicity induction, CellTiter-Glo, 5 h incubation, median.

MCL-1, sequence (Q07820 whole entry): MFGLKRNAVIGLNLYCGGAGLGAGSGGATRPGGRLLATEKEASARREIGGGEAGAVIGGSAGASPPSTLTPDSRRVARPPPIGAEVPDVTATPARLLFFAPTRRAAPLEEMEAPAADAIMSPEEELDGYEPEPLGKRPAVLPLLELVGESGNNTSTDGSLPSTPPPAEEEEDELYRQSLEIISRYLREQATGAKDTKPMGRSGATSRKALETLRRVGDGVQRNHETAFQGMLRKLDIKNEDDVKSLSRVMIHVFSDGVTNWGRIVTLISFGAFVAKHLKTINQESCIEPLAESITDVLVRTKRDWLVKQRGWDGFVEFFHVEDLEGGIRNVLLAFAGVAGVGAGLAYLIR

Turning to `Cc1c2c(nn1C)COCCCn1c(C(=O)O)c(CCCOc3cccc4ccccc34)c3cccc-2c31` (single isomer, unassigned; enantiomer 1) [Example 064, 10,11-dimethyl-1-[3-(naphthalen-1-yloxy)propyl]-5,6,8,10-tetrahydro-4H-pyrazolo[4′,3′:8,9][1,5]oxazecino[7,6,5-h]indole-2-carboxylic acid-N-ethylethanamine Salt (Enantiomer 1)], the IC50 in the data set with A2780 (Homo sapiens, A2780, 72 h) is 3.14e-05 M; in the data set with SUDHL5 [2], 1.12e-05 M; on MCL-1 it was 11.5 nM; in the data set on SUDHL10 [3] (setting [6]) it was 2.59e-05 M; in the data set on SUDHL5 [5] (setting [7]), 7.53e-06 M. The EC50 in the data set on SUDHL10 [1] (Homo sapiens, SU-DHL10, 3 h) was 17.5 µM; in the data set with SUDHL5 [4], 4.98 µM.

`CCn1nc(C2CC2)c2c1COCCCCn1c(C(=O)O)c(CCCOc3cccc4ccccc34)c3cccc-2c31` (single isomer, unassigned; enantiomer 1) [Example 089, 3-cyclopropyl-1-ethyl-7-[3-(naphthalen-1-yloxy)propyl]-1,10,11,12,13,15-hexahydropyrazolo[4′,3′:9,10][1,6]oxazacycloundecino[8,7,6-hi]indole-8-carboxylic acid-N-ethylethanamine Salt (Enantiomer 1)]: the IC50 was over 3.3e-05 M with A2780 (Homo sapiens, A2780, 72 h); 1.71e-05 M in the data set on SUDHL5 [2] (Homo sapiens, SU-DHL-5, 72 h); 3.84 nM on MCL-1; 3e-05 M in the data set with SUDHL10 [3] (setting [6]); 7e-06 M in the data set on SUDHL5 [5] (setting [7]). Further, the EC50 in the data set on SUDHL10 [1] (Homo sapiens, SU-DHL10, 3 h) is 24.1 µM; in the data set with SUDHL5 [4], 6.76 µM.

Take `Cc1nn(CC(F)(F)F)c2c1-c1cccc3c(CCCOc4cccc5c4CCCC5)c(C(=O)O)n(c13)CCCCOC2` (single isomer, unassigned; enantiomer 1) [Example 162, 3-methyl-7-[3-(5,6,7,8-tetrahydronaphthalen-1-yloxy)propyl]-1-(2,2,2-trifluoroethyl)-1,10,11,12,13,15-hexahydropyrazolo[4′,3′:9,10][1,6]oxazacycloundecino[8,7,6-hi]indole-8-carboxylic acid-N-ethylethanamine Salt (Enantiomer 1)]: the IC50 in the data set with A2780 (Homo sapiens, A2780, 72 h) was 2.55e-05 M; with SUDHL5 [2], 6.96e-08 M; at MCL-1, 7.61 nM; in the data set with SUDHL10 [3] (setting [6]) it was 2.3e-05 M; in the data set with SUDHL5 [5] (setting [7]), 8.92e-06 M. Moreover, the EC50 in the data set on SUDHL10 [1] (Homo sapiens, SU-DHL10, 3 h) turned out to be 23.2 µM; with SUDHL5 [4], 5.35 µM.

With `Cc1nn(C)c2c1-c1cccc3c(CCCOc4cccc5cc(Cl)ccc45)c(C(=O)O)n(c13)CCCCOC2` (single isomer, unassigned; enantiomer 2) [Example 042, 7-{3-[(6-chloronaphthalen-1-yl)oxy]propyl}-1,3-dimethyl-1,10,11,12,13,15-hexahydropyrazolo[4′3′:9,10][1,6]oxazacycloundecino[8,7,6-hi]indole-carboxylic acid-N-ethylethanamine Salt (Enantiomer 2)], the IC50 is 1.02e-05 M with A2780; 4.97e-06 M in the data set on SUDHL5 [2]; 56.6 nM against MCL-1; 3e-05 M in the data set with SUDHL10 [3] (setting [8]); over 3.3e-05 M in the data set on SUDHL5 [5] (setting [7]). In addition, the EC50 in the data set with SUDHL10 [1] and in the data set on SUDHL5 [4] was over 33 µM throughout.

As for `Cc1nn(C)c2c1-c1cccc3c(CCCOc4cccc5ccccc45)c(C(=O)O)n(c13)CCCOC2` (single isomer, unassigned; enantiomer 2) [Example 045, 9,11-dimethyl-1-[3-(naphthalen-1-yloxy)propyl]-5,6,8,9-tetrahydro-4H-pyrazolo[4′,3′:8,9][1,5]oxazecino[7,6,5-hi]indole-2-carboxylic acid-N-ethylethanamine Salt (Enantiomer 2)], the IC50 in the data set with A2780 was 2.78e-05 M; in the data set with SUDHL5 [2], 5.73e-06 M; at MCL-1 it was 25.9 nM; with SUDHL10 [3] (setting [8]), 2.89e-05 M; with SUDHL5 [5] (setting [7]), 2.59e-05 M. Moreover, the EC50 in the data set on SUDHL10 [1] was 32.7 µM; in the data set with SUDHL5 [4] it was over 33 µM.

`Cc1nn(C)c2c1-c1cccc3c(CCCOc4cccc5cc(F)ccc45)c(C(=O)O)n(c13)CCCOC2` (single isomer, unassigned; enantiomer 2) [Example 048, 1-{3-[(6-fluoronaphthalen-1-yl)oxy]propyl}-9,11-dimethyl-5,6,8,9-tetrahydro-4H-pyrazolo[4′,3′:8,9][1,5]oxazecino[7,6,5-hi]indole-2-carboxylic acid-N-ethylethanamine Salt (Enantiomer 2)]: the IC50 in the data set on A2780 (Homo sapiens, A2780, 72 h) was 1.01e-05 M; with SUDHL5 [2] (Homo sapiens, SU-DHL-5, 72 h), 4.84e-06 M; at MCL-1 it was 13.6 nM; with SUDHL10 [3] (setting [6]), 1.71e-05 M; in the data set with SUDHL5 [5] (setting [9]) it was 1.19e-05 M. In addition, the EC50 in the data set on SUDHL10 [1] (Homo sapiens, SU-DHL10, 3 h) was 17.8 µM; in the data set with SUDHL5 [4] (Homo sapiens, SU-DHL-5, 3 h), 13.2 µM.

Take `Cc1c2c(nn1C)COCCCn1c(C(=O)O)c(CCCOc3cccc4ccccc34)c3cccc-2c31` (single isomer, unassigned; enantiomer 2) [Example 065, 10,11-dimethyl-1-[3-(naphthalen-1-yloxy)propyl]-5,6,8,10-tetrahydro-4H-pyrazolo[4′,3′:8,9][1,5]oxazecino[7,6,5-hi]indole-2-carboxylic acid-N-ethylethanamine Salt (Enantiomer 2)]: the IC50 was over 3.3e-05 M with A2780; 2.61e-05 M with SUDHL5 [2]; 39.3 nM against MCL-1; over 3.3e-05 M in the data set with SUDHL10 [3] (setting [8]); over 3.3e-05 M with SUDHL5 [5] (setting [7]). The EC50 in the data set with SUDHL10 [1] and in the data set on SUDHL5 [4] was over 33 µM each time.

As to `CCn1nc(C2CC2)c2c1COCCCCn1c(C(=O)O)c(CCCOc3cccc4ccccc34)c3cccc-2c31` (single isomer, unassigned; enantiomer 2) [Example 090, 3-cyclopropyl-1-ethyl-7-[3-(naphthalen-1-yloxy)propyl]-1,10,11,12,13,15-hexahydropyrazolo[4′3′:9,10][1,6]oxazacycloundecino[8,7,6-hi]indole-8-carboxylic acid-N-ethylethanamine Salt (Enantiomer 2)], the IC50 was 1.98e-05 M in the data set on A2780; 1.5e-05 M in the data set with SUDHL5 [2]; 10.3 nM against MCL-1; over 3.3e-05 M with SUDHL10 [3] (setting [8]); over 3.3e-05 M in the data set on SUDHL5 [5] (setting [7]). In addition, the EC50 with SUDHL10 [1] and with SUDHL5 [4] was over 33 µM throughout.

`CCc1c2c(nn1C)COCCCCn1c(C(=O)O)c(CCCOc3cccc4ccccc34)c3cccc-2c31` (single isomer, unassigned; enantiomer 2) [Example 149, 3-Ethyl-2-methyl-7-[3-(1-naphthyloxy)propyl]-2,10,11,12,13,15-hexahydropyrazolo[4′,3′:9,10][1,6]oxazacycloundecino[8,7,6-hi]indole-carboxylic acid-N-ethylethanamine Salt (Enantiomer 2)]: the IC50 is 2.84e-05 M with A2780; 1.26e-05 M in the data set with SUDHL5 [2]; 66.6 nM against MCL-1; over 3.3e-05 M in the data set on SUDHL10 [3] (setting [8]); over 3.3e-05 M in the data set with SUDHL5 [5] (setting [7]). The EC50 in the data set on SUDHL10 [1] and with SUDHL5 [4] was over 33 µM throughout.

For `CCc1c2c(nn1C)COCCCCn1c(C(=O)O)c(CCCOc3cccc4ccccc34)c3ccc(C)c-2c31` (single isomer, unassigned; enantiomer 2) [Example 155, 3-Ethyl-2,4-dimethyl-7-[3-(1-naphthyloxy)propyl]-2,10,11,12,13,15-hexahydropyrazolo[4′,3′:9,10][1,6]oxazacycloundecino[8,7,6-hi]indole-8-carboxylic acid-N-ethylethanamine Salt (Enantiomer 2)], the IC50 with A2780 was 2.25e-05 M; with SUDHL5 [2] it was 8.34e-06 M; against MCL-1, 48 nM; with SUDHL10 [3] (setting [8]) it was over 3.3e-05 M; with SUDHL5 [5] (setting [7]), over 3.3e-05 M. Further, the EC50 in the data set on SUDHL10 [1] and in the data set with SUDHL5 [4] was over 33 µM throughout.

Regarding `Cc1c2c(nn1CC(F)(F)F)COCCCCn1c(C(=O)O)c(CCCOc3cccc4ccccc34)c3cccc-2c31` [Example 241, 3-methyl-7-[3-(naphthalen-1-yloxy)propyl]-2-(2,2,2-trifluoroethyl)-210,11,12,13,15-hexahydropyrazolo[4′,3′:9,10][1,6]oxazacycloundecino[8,7,6-hi]indole-8-carboxylic Acid], the IC50 stood at 2.89e-05 M in the data set on A2780 (Homo sapiens, A2780, 72 h); 9.89e-06 M in the data set on SUDHL5 [2] (Homo sapiens, SU-DHL-5, 72 h); 7.51 nM against MCL-1; 1.92e-05 M with SUDHL10 [3] (setting [6]); 4.64e-06 M in the data set on SUDHL5 [5] (setting [9]). Besides, the EC50 is 17.1 µM with SUDHL10 [1] (Homo sapiens, SU-DHL10, 3 h) and 3.75 µM in the data set on SUDHL5 [4] (Homo sapiens, SU-DHL-5, 3 h).
